Biological target: T1, human B1R receptor (CHO K1 cells stably transfected with the human B1R gene) (Homo sapiens, UniProt P46663)
T1 construct: expressed in transfected cells; host or cells: CHO K1 cells (Chinese hamster ovary), stably transfected
T1 sequence (P46663 1-353): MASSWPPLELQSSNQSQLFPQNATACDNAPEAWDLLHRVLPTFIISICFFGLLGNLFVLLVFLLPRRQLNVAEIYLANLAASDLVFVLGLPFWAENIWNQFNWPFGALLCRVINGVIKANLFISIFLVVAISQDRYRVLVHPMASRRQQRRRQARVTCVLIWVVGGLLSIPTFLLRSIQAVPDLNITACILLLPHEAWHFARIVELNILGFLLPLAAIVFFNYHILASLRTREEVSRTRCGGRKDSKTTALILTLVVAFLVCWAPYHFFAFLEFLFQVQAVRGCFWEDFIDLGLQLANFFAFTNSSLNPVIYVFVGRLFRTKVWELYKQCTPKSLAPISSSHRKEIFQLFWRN
Test: Functional study on the bradykinin receptor 1 (B1R), Ca2+ fluorescence (Fluo-4) FLIPR/Novostar assay, hB1R cells
Assay type: cell-based
Conditions: CHO-K1, read-out: % inhibition (human B1R) at 10 μM
In short: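 Ca2+ influx (Fluo-4, peak fluorescence, λex 488/λem 540 nm) was measured in CHO K1 lines expressing rat or human B1R. After a 10 μM test-compound pre-addition scoring % activation, cells received EC80 agonist: Des-Arg9-bradykinin for rat, Lys-Des-Arg9-bradykinin for human. Antagonism was expressed as % of maximum inhibition, with IC50 from varied concentrations.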

Row | inhibition at 10 µM | SMILES
1 | 100% | CC(C)N(C(=O)c1cccc(F)c1Cl)[C@@H]1CCc2ccc(C(=O)N(C)C3CCN(c4ccncc4)CC3)cc21 [Example H-202, (3R)-3-[(2-Chloro-3-fluoro-benzoyl)-isopropyl-amino]-N-methyl-N-(1-pyridin-4-yl-piperidin-4-yl)-2,3-dihydro-1H-indene-5-carboxylic acid amide]
2 | 100% | CCN(C(=O)c1cccc(F)c1Cl)[C@@H]1CCc2ccc(C(=O)N(C)C3CCN(c4ccncc4)CC3)cc21 [Example H-203, (3R)-3-[(2-Chloro-3-fluoro-benzoyl)-ethyl-amino]-N-methyl-N-(1-pyridin-4-yl-piperidin-4-yl)-2,3-dihydro-1H-indene-5-carboxylic acid amide]
3 | 100% | CC(C)N(C(=O)c1ccc(F)cc1Cl)[C@@H]1CCc2ccc(C(=O)N(C)C3CCN(c4ccncc4)CC3)cc21 [Example H-204, (3R)-3-[(2-Chloro-4-fluoro-benzoyl)-isopropyl-amino]-N-methyl-N-(1-pyridin-4-yl-piperidin-4-yl)-2,3-dihydro-1H-indene-5-carboxylic acid amide]
4 | 100% | CN(C(=O)c1ccc2c(c1)[C@H](N(C)C(=O)c1cccc(F)c1Cl)CC2)C1CCN(c2ccncc2)CC1 [Example H-205, (3R)-3-[(2-Chloro-3-fluoro-benzoyl)-methyl-amino]-N-methyl-N-(1-pyridin-4-yl-piperidin-4-yl)-2,3-dihydro-1H-indene-5-carboxylic acid amide]
5 | 94% | CC(C)N(C(=O)c1ccc(F)cc1Cl)[C@@H]1CCc2cc(F)c(C(=O)N(C)C3CCN(c4ccncc4)CC3)cc21 [Example H-206, (3R)-3-[(2-Chloro-4-fluoro-benzoyl)-isopropyl-amino]-6-fluoro-N-methyl-N-(1-pyridin-4-yl-piperidin-4-yl)-2,3-dihydro-1H-indene-5-carboxylic acid amide]
6 | 45% | CC(C)N(C(=O)c1cccnc1C(F)(F)F)[C@@H]1CCc2ccc(C(=O)N(C)C3CCN(c4ccncc4)CC3)cc21 [Example H-208, N-Isopropyl-N-[(1R)-6-[methyl-(1-pyridin-4-yl-piperidin-4-yl)-carbamoyl]-2,3-dihydro-1H-inden-1-yl]-2-(trifluoromethyl)-pyridine-3-carboxylic acid amide]
7 | 99% | Cc1cc(N2CCC(N(C)C(=O)c3ccc4c(c3)[C@H](N(C)C(=O)c3cc(F)ccc3Cl)CC4)CC2)nc(C)n1 [Example H-210, (3R)-3-[(2-Chloro-5-fluoro-benzoyl)-methyl-amino]-N-[1-(2,6 dimethyl-pyrimidin-4-yl)-piperidin-4-yl]-N-methyl-2,3-dihydro-1H-indene-5-carboxylic acid amide]
8 | 99% | CCN(C(=O)c1cc(F)ccc1Cl)[C@@H]1CCc2ccc(C(=O)N(C)C3CCN(c4cc(C)nc(C)n4)CC3)cc21 [Example H-211, (3R)-3-[(2-Chloro-5-fluoro-benzoyl)-ethyl-amino]-N-[1-(2,6-dimethyl-pyrimidin-4-yl)-piperidin-4-yl]-N-meihyl-2,3-dihydro-1H-indene-5-carboxylic acid amide]
9 | 99% | CCN(C(=O)c1c(F)cccc1Cl)[C@@H]1CCc2ccc(C(=O)N(C)C3CCN(c4ccncc4)CC3)cc21 [Example H-220]
10 | 99% | CCN(C(=O)c1cc(F)ccc1Cl)[C@@H]1CCc2ccc(C(=O)N(C)C3CCN(c4ccncc4)CC3)cc21 [Example H-221, (3R)-3-[(2-Chloro-5-fluoro-benzoyl)-ethyl-amino]-N-methyl-N-(1-pyridin-4-yl-pipendin-4-yl)-2,3-dihydro-1H-indene-5-carboxylic acid amide]

Further lines, the molecule ahead of its results:

Row | SMILES | inhibition at 10 µM
11 | Cc1cc(N2CCC(N(C)C(=O)c3ccc4c(c3)[C@H](N(C)C(=O)c3cccc(F)c3Cl)CC4)CC2)nc(C)n1 [Example H-195, (3R)-3-[(2-Chloro-3-fluoro-benzoyl)-methyl-amino]-N-[1-(2,6 dimethyl-pyrimidin-4-yl)-piperidin-4-yl]-N-methyl-2,3-dihydro-1H-indene-5-carboxylic acid amide] | 100%
12 | Cc1cc(N2CCC(N(C)C(=O)c3ccc4c(c3)[C@H](N(C(=O)c3cccc(F)c3Cl)C(C)C)CC4)CC2)nc(C)n1 [Example H-196, (3R)-3-[(2-Chloro-3-fluoro-benzoyl)-isopropyl-amino]-N-[1-(2,6-dimethyl-pyrimidin-4-yl)-piperidin-4-yl]-N-methyl-2,3-dihydro-1H-indene-5-carboxylic acid amide] | 98%
13 | CCN(C(=O)c1cccc(F)c1Cl)[C@@H]1CCc2ccc(C(=O)N(C)C3CCN(c4cc(C)nc(C)n4)CC3)cc21 [Example H-197, (3R)-3-[(2-Chloro-3-fluoro-benzoyl)-ethyl-amino]-N-[1-(2,6-dimethyl-pyrimidin-4-yl)-piperidin-4-yl]-N-meihyl-2,3-dihydro-1H-indene-5-carboxylic acid amide] | 100%
14 | Cc1cc(N2CCC(N(C)C(=O)c3cc4c(cc3F)CC[C@H]4N(C(=O)c3ccc(F)cc3Cl)C(C)C)CC2)nc(C)n1 [Example H-198, (3R)-3-[(2-Chloro-4-fluoro-benzoyl)-isopropyl-amino]-N-[1-(2,6-dimethyl-pyrimidin-4-yl)-piperidin-4-yl]-6-fluoro-N-methyl-2,3-dihydro-1H-indene-5-carboxylic acid amide] | 76%
15 | Cc1cc(N2CCC(N(C)C(=O)c3ccc4c(c3)[C@H](N(C(=O)c3ccc(F)cc3Cl)C(C)C)CC4)CC2)nc(C)n1 [Example H-199, (3R)-3-[(2-Chloro-4-fluoro-benzobenzoyl)-isopropyl-amino]-N-[1-(2,6-dimethyl-pyrimidin-4-yl)-piperidin-4-yl]-N-methyl-2,3-dihydro-1H-indene-5-carboxylic acid amide] | 94%
16 | Cc1cc(N2CCC(N(C)C(=O)c3ccc4c(c3)[C@H](N(C(=O)c3cccnc3C(F)(F)F)C(C)C)CC4)CC2)nc(C)n1 [Example H-207] | 44%
17 | Cc1cc(N2CCC(N(C)C(=O)c3cc4c(cc3F)CC[C@H]4N(C(=O)c3cccnc3C(F)(F)F)C(C)C)CC2)nc(C)n1 [Example H-209, N-[(1R)-6-[[1-(2,6-Dimethyl-pyrimidin-4-yl)-piperidin-4-yl]-metyl-carbamoyl]-5-fluoro-2,3-dihydro-1H-inden-1-yl]-N-isopropyl-2-(trifluoromethyl)-pyridine-3-carboxylic acid amide] | 10%
18 | Cc1cc(N2CCC(N(C)C(=O)c3ccc4c(c3)[C@H](N(C(=O)c3cc(F)ccc3Cl)C(C)C)CC4)CC2)nc(C)n1 [Example H-212, (3R)-3-[(2-Chloro-5-fluoro-benzoyl)-isopropyl-amino]-N-[1-(2,6-dimethyl-pyrimidin-4-yl)-piperidin-4-yl]-N-methyl-2,3-dihydro-1H-indene-5-carboxylic acid amide] | 82%
19 | Cc1cc(N2CCC(N(C)C(=O)c3cc4c(cc3F)CC[C@H]4NC(=O)c3ccccc3Cl)CC2)nc(C)n1 [Example H-213, (3R)-3-[(2-Chloro-benzoyl)amino]-N-[1-(2,6-dimethyl-pyrimidin-4-yl)-piperidin-4-yl]-6-fluoro-N-methyl-2,3-dihydro-1H-indene-5-carboxylic acid amide] | 100%
20 | CNc1nccc(N2CCC(N(C)C(=O)c3ccc4c(c3)[C@H](NC(=O)c3ccccc3Cl)CC4)CC2)n1 [Example H-214, (3R)-3-[(2-Chloro-benzoyl)amino]-N-methyl-N-[1-(2-methylamino-pyrimidin-4-yl)-piperidin-4-yl]-2,3-dihydro-1H-indene-5-carboxylic acid amide] | 100%
21 | Cc1cc(N2CCC(CCNC(=O)c3ccc4c(c3)[C@H](NC(=O)c3ccccc3Cl)CC4)CC2)nc(C)n1 [Example H-215, (3R)-3-[(2-Chloro-benzoyl)amino]-N-[2-[1-(2,6-dimethyl-pyrimidin-4-yl)-piperidin-4-yl]-ethyl]-2,3-dihydro-1H-indene-5-carboxylic acid amide] | 95%
22 | CCN(C(=O)c1ccc2c(c1)[C@H](NC(=O)c1ccccc1Cl)CC2)C1CCN(c2cc(C)nc(C)n2)CC1 [Example H-216, (3R)-3-[(2-Chloro-benzoyl)amino]-N-[1-(2,6-dimethyl-pyrimidin-4-yl)-piperidin-4-yl]-N-ethyl-2,3-dihydro-1H-indene-5-carboxylic acid amide] | 98%
23 | CN(C(=O)c1ccc2c(c1)[C@H](NC(=O)c1ccccc1Cl)CC2)C1CCN(c2cc[nH]c(=O)c2)CC1 [Example H-219, (3R)-3-[(2-Chloro-benzoyl)amino]-N-methyl-N-[1-(2-oxo-1H-pyridin-4-yl)-piperidin-4-yl]-2,3-dihydro-1H-indene-5-carboxylic acid amide] | 79%
24 | Cc1cc(N2CCC(N(C)C(=O)c3ccc4c(c3)[C@H](NC(=O)CC(C)C(C)C)CC4)CC2)ccn1 (stereo partly drawn) [Example H-222, (3R)-3-(3,4-Dimethyl-pentanoylamino)-N-methyl-N-[1-(2-methyl-pyridin-4-yl)-piperidin-4-yl]-2,3-dihydro-1H-indene-5-carboxylic acid amide] | 99%
25 | Cc1cc(N2CCC(N(C)C(=O)c3ccc4c(c3)[C@H](NC(=O)CC(C)C(C)C)CC4)CC2)nc(C)n1 (stereo partly drawn) [Example H-223, (3R)-3-(3,4-Dimethyl-pentanoylamino)-N-[1-(2,6-dimethyl-pyrimidin-4-yl)-piperidin-4-y]-N-methyl-2,3-dihydro-1H-indene-5-carboxylic acid amide] | 96%
